Legend:
Assay in all cases: biochemical
[1] = molecular target: T1, SaTrm10 (Sulfolobus acidocaldarius, UniProt Q4J894)
T1 sequence (Q4J894 1-292): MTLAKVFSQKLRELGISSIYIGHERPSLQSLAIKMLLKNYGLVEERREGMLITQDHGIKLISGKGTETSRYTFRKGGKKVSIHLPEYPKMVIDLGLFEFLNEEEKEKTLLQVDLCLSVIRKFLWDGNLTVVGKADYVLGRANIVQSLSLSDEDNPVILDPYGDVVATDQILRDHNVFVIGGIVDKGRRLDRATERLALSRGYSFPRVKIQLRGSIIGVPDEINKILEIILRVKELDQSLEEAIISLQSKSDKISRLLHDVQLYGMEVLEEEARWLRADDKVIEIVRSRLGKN

[2] = molecular target: SaTrm10 (Sulfolobus acidocaldarius, UniProt Q4J894, D220N)
[3] = molecular target: SaTrm10 (Sulfolobus acidocaldarius, UniProt Q4J894, D184N)
Sequence of SaTrm10 (Sulfolobus acidocaldarius, UniProt Q4J894, D184N) (Q4J894 whole entry D184N): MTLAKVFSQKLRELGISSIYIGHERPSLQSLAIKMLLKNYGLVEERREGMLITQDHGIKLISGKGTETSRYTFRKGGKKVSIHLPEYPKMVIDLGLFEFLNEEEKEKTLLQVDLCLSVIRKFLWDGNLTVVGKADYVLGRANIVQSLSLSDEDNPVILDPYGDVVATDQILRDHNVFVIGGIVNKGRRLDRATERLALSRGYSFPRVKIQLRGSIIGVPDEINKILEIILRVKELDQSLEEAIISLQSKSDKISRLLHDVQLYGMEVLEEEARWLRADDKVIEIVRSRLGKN

Sequence of SaTrm10 (Sulfolobus acidocaldarius, UniProt Q4J894, D220N) (Q4J894 whole entry D220N): as the sequence (Q4J894 whole entry D184N) above, with N184D, D220N counted along it

Q: For C[S+](CC[C@H](N)C(=O)O)C[C@H]1O[C@@H](n2cnc3c(N)ncnc32)[C@H](O)[C@@H]1O (stereo partly drawn) [S-adenosyl methionine], which Kd [1] is on record?
A: 33 ± 4 µM

Q: What about the Kd [2] of the same compound?
A: 47 ± 8 µM

Q: And the Kd [3]?
A: 28 ± 5 µM
